Results: patent US20230173090A1, “COMPOSITIONS AND METHODS FOR MODULATING DOPAMINE RECEPTOR ACTIVITY” (The Regents of the University of California, priority 2020, published 2023)

Target: T1, SNAP-D1R (Homo sapiens, UniProt P21728)
T1 construct: expressed in transfected cells; host or cells: HEK293T
Assay: SNAP-D1R photoactivation, GIRK assay in HEK293T cells
Assay type: cell-based
Conditions: P-D1ago tethered to SNAP-tag fused to the N-terminus of D1R
From the text: To test the ability of P-D1ago to photo-activate D1R, it was attached directly to a version of D1R that has SNAP fused to its extracellular N-terminus, which is adjacent to the ligand binding site of the receptor. SNAP-D1R was co-expressed in HEK293T cells with the G protein-coupled inwardly rectifying potassium (GIRK) channel as an effector. […] P-D1ago was attached to the M, which was co-expressed in HEK293T cells with the native D1R and the GIRK channel. […] To optimize D1R photoactivation, the geometric positioning of P-D1ago was adjusted using variants of M with “lift” peptides between the SNAP-tag and transmembrane segment. Photoactivation increased with an M variant containing a rigid, α-helical EAAAK (SEQ ID NO: 13) peptide (MEAAAK (SEQ ID NO: 16); FIG. 2B, C, and E) and decreased as the lift peptide was further extended (FIGS. 11D-11F), presumably because P-D1ago “rises” too far from the cell surface.
FIGS. 10A-10C. […] (A) Schematic representation of P-D1ago tethered to a SNAP-tag fused directly to the extracellular N-terminus of D1R. (B) Representative trace of SNAP-D1R photoactivation by P-D1ago according to the GIRK assay. […] (C) Summary of SNAP-D1R photoactivation by P-D1ago relative to a saturating concentration of DA (10 µM). n = 5 cells.

T1 sequence (P21728 with tags, fused parts or gaps): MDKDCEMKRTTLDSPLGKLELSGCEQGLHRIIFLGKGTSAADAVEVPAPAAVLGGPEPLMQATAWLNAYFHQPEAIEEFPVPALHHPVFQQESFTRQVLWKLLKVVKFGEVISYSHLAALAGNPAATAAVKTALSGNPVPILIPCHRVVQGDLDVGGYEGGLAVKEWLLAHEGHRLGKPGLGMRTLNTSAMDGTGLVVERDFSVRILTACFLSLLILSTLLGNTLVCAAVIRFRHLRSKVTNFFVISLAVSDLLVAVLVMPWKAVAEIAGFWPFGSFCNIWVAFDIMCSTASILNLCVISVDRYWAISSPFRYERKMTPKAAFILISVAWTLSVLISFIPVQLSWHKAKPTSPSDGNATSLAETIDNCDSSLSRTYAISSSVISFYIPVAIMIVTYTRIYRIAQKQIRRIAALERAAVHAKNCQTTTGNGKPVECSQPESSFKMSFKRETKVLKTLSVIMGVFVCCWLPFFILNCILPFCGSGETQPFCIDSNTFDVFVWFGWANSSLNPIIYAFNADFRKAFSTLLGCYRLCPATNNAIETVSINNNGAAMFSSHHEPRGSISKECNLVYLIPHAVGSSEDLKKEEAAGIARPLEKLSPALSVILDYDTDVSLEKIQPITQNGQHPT

SMILES: CCCN(CCc1ccc(N=Nc2ccc(NC(=O)CNC(=O)CCOCCOCCOCCOCCOCCOCCOCCOCCOCCOCCOCCOCCn3cc(CCC(=O)NCc4ccc(COc5nc(N)nc6nc[nH]c56)cc4)nn3)cc2)cc1)C1CCc2c(O)cccc2C1 (stereo not shown) [P-D1ago, Benzylguanine-azobenzene-PPHT]
- SNAP-D1R photoactivation: photoactivates D1R in response to blue light and is deactivated with UV light
